One data set has as its system A549 (KRAS-G12S) pERK. Put plainly: Cell-based pERK dose response study, A549. On the procedure:
(§1) Materials and Methods: A549 or A375 cells were seeded in 6-well plates at an appropriate seeding density on day 0. On day 2 or 3, after checking the health and confluency of cells, the media was aspirated and replaced with 1 mL media containing a predetermined concentration of compound and incubated for 2 hours. After 2 hours, the media was aspirated, and the cells washed 2 times with cold PBS. Cells were lysed on ice, with 50 uL 1×CST lysis buffer+1 mM PMSF for 5 minutes. After 5 minutes, cells were removed using a scraper and transferred to cold 1.5 mL tubes, and centrifuged for 10 min, 4° C., 14,000×g. Supernatant was gently removed and snap frozen in liquid nitrogen. Protein concentration of the lysate was determined using Bradford Reagent (analyzed using SpectraMax M2E) and diluted to 1 mg/mL or pERK or 1.5 mg/mL for pMEK analysis. […] All dilutions were in Milk-free antibody diluent.

The test system of the next data set is A375 pERK:tERK. Put plainly: Cell-based pERK:tERK, A375. On the procedure:
as §1

Another data set can be described thus: PAMPA (pH 7.4). The protocol:
Each stock solution was diluted to 50 uM in pH 7.4 Prisma HT buffer (pION) and 200 ul was added to each well of the donor plate in triplicate. The polyvinylidene fluoride (PVDF, 0.45 μm) filter membrane on the acceptor plate was coated with 5 ul gastrointestinal tract lipid formulation (GIT-0, pION) and to each well of the acceptor plate, 200 μl of acceptor sink buffer (pION) was added. The acceptor filter plate was then carefully placed on top of the donor plate to form a sandwich. The sandwich was incubated at 25° C. for 4 h without stirring. UV-vis spectra of the solutions in the blank, reference, acceptor and donor plates were measured using a microplate reader (Tecan Infinite 200PRO M Nano Plus). Permeability values were calculated using the PAMPA explorer software v. 3.8.0.2 (pION).
Background: In PAMPA a lipid-coated filter parts donor from acceptor wells.

Data set [1] in a line: Pharmacokinetics, single dose, 2-hour tissue levels in Colon26 tumor bearing mice. It is filed as in vivo. The following applies: female, athymic BALB/c nude or BALB/c, mouse, po, single dose 100 mg/kg p.o., 2-hour post dose. The protocol: Female mice (either athymic BALC/c nude, or BALB/c mice) were inoculated with a single subcutaneous injection of 0.2 ml of mouse Colon-26 cell suspension (1×10^5 cells per animal) in the inguinal region. Colon26 (C26) tumor bearing mice received a single dose (3 mice/treatment) of vehicle (10% DMSO/90% [20% SBE-β-CD in saline], pH 5) containing compounds at 100 mg/kg by gavage (p.o.) and 2-hour post dose humanely euthanized.
Blood was obtained through cardiac puncture into K+EDTA tubes, mixed by inversion and centrifuged to obtain the plasma. Tissues were excised, cleaned of surrounding tissues. All samples immediately snap frozen in liquid N2 prior to LC-MS/MS analysis (using Waters HSS T3 2.1×50 mm (1.8 um) LC column, and an API-6500 Electrospray MS unit).

A further data set addresses T1, CYP450 2B6 (Homo sapiens, UniProt P20813).
T1 sequence (P20813 1-491): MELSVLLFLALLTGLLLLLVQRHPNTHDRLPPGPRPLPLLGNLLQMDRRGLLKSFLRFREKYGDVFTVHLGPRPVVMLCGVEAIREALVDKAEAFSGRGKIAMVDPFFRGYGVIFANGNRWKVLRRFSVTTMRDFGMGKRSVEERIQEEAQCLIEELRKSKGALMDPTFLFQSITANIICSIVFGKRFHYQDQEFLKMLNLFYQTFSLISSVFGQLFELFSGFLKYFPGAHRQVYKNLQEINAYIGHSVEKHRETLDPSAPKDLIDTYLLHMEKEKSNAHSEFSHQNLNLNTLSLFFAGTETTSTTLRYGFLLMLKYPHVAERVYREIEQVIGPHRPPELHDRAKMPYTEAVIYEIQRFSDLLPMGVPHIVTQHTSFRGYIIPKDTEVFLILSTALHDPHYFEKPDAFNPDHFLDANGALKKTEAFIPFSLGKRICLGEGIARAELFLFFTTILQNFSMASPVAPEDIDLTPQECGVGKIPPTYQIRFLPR
Briefly: CYP450 panel, 2B6. The following applies: 10 μM; substrate bupropion.

In a further data set the target is T2, CYP450 2C8 (Homo sapiens, UniProt P10632).
T2 sequence (P10632 1-490): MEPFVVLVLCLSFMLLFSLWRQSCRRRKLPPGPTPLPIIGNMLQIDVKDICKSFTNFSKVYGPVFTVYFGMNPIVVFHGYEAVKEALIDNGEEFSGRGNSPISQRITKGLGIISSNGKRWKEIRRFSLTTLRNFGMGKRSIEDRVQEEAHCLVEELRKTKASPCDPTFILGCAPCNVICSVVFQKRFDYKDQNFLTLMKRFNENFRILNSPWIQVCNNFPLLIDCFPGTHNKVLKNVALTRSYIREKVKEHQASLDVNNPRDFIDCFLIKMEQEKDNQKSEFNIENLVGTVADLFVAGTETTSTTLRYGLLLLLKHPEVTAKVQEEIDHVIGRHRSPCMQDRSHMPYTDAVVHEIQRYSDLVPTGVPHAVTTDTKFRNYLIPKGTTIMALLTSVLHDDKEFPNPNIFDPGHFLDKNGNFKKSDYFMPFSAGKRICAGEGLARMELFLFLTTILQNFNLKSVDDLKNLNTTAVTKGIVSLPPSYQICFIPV
Put plainly: CYP450 panel, 2C8. Particulars: 10 μM; substrate amodiaquine.

The target in a further data set is CYP450 2C9 (Homo sapiens, UniProt P11712). Briefly: CYP450 panel, 2C9. The following applies: 10 μM; substrate Diclofenac.
The target of another data set is CYP450 2D6 (Homo sapiens, UniProt P10635). Put plainly: CYP450 panel, 2D6. The following applies: 10 μM; substrate dextromethophan.
The target of a further data set is CYP450 3A4 (Homo sapiens, UniProt P08684). Briefly: CYP450 panel, 3A4. Particulars: 10 μM; for 3A4*: substrate midazolam; for 3A4^: substrate testosterone.

Read-outs that look alike come from different tables or passages of the source.

A word on the IC50: it is the concentration that gives 50% inhibition. The term Papp denotes a coefficient for how fast a substance crosses the barrier.

Chain of CYP450 2D6 (P10635 whole entry): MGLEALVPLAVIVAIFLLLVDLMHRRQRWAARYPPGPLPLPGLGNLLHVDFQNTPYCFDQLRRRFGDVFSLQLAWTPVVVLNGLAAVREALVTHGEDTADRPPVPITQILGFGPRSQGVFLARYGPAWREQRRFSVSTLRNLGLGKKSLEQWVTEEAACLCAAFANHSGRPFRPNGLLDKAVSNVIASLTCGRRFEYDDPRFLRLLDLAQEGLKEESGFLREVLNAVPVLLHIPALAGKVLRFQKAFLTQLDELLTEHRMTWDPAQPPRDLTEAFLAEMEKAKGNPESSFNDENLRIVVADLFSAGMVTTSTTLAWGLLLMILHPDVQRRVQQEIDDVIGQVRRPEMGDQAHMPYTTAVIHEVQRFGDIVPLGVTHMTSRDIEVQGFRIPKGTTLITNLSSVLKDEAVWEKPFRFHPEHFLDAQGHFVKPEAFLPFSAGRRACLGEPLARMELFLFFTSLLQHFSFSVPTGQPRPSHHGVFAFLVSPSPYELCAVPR
Chain of CYP450 3A4 (P08684 whole entry): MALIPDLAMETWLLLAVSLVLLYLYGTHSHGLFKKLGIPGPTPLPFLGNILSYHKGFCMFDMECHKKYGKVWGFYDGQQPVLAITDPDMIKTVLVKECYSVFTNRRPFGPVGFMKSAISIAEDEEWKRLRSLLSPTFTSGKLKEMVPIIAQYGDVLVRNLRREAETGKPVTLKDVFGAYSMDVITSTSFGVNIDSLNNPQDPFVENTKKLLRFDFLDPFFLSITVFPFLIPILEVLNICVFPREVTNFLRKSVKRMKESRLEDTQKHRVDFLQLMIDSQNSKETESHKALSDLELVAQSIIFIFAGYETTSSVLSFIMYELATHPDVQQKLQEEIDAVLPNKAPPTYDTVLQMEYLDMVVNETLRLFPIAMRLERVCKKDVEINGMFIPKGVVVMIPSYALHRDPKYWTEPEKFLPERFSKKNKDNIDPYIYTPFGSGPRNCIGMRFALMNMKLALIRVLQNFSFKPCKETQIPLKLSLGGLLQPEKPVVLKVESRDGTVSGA
Chain of CYP450 2C9 (P11712 whole entry): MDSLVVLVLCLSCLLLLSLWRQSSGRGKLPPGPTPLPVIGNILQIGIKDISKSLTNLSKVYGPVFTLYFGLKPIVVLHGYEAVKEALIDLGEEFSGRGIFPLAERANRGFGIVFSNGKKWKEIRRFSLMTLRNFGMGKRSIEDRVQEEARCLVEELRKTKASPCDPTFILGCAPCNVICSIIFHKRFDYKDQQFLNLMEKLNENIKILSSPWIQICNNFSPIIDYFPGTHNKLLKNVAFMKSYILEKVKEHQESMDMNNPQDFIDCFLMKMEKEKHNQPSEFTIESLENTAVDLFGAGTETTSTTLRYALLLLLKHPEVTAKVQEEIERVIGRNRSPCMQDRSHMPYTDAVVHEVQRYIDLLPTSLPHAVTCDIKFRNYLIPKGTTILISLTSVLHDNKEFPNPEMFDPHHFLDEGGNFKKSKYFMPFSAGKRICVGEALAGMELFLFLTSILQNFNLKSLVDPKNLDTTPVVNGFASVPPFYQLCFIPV

Regarding `CNS(=O)(=O)Nc1cccc(Cc2c(CN(C)C)c3ccc(OC(=O)N(C)C)cc3oc2=O)c1F` [Compound 9], the “A549 pERK:tERK ratio [10 nM; 2 hr]” value in the data set on A549 (KRAS-G12S) pERK (10 nM, 2 hr) came to 0.62. Besides, the IC50 in the data set on A549 (KRAS-G12S) pERK (Homo sapiens, A549, 12-point dose, 2 hours) was determined as 19.8 nM. Besides, in the data set on A375 pERK:tERK, the “A375 pERK:tERK ratio [10 nM; 2 hr]” value amounted to 0.71. In the data set “PAMPA (pH 7.4)” (PAMPA), the Papp at 4 h, 50 uM was found to be 37 ×10⁻⁶ cm/s. The concentration at 2 h in data set [1] (liver, read-out: Liver) was determined as 1260 ng/g; in data set [1] (muscle, read-out: Muscle), 363 ng/g; in data set [1] (plasma, read-out: Plasma) it was 407 ng/mL; in [1] (tumor, read-out: Tumor), 1350 ng/g. The “2B6*” value on CYP450 2B6 came out at 14.8. Moreover, at CYP450 2C8, the “2C8*” value was 4.0. Besides, the “2C9*” value at CYP450 2C9 is reported as 6.8. Further, the “2D6*” value on CYP450 2D6 was −3.7. In addition, the “3A4*” value on CYP450 3A4 turned out to be 16.3. The “3A4^” value at CYP450 3A4 is given as 26.8.
Regarding `Cn1cnc2c(F)c(Nc3ccc(Br)cc3Cl)c(C(=O)NOCCO)cc21` [Reference 1, Selumetinib, reference compound], the “PAMPA (pH = 7.4; Papp 10^−6 cm/s)” value in the data set “PAMPA (pH 7.4)” is listed as 29 10^−6 cm/s. At CYP450 2B6, the “2B6*” value is listed as 30.2. The “2C8*” value on CYP450 2C8 is on record as 18.9. Also, the “2C9*” value at CYP450 2C9 came out at 14.1. Further, the “2D6*” value on CYP450 2D6 was determined as 5.0. Further, at CYP450 3A4, the “3A4*” value was determined as 25.9 and the “3A4^” value turned out to be 21.4.
For `CNS(=O)(=O)Nc1nccc(Cc2c(C)c3ccc(Oc4ncccn4)cc3oc2=O)c1F` [Reference 2, reference compound], the “PAMPA (pH = 7.4; Papp 10^−6 cm/s)” value in the data set “PAMPA (pH 7.4)” is reported as 29 10^−6 cm/s. Further, the concentration at 2 h worked out at 1990 ng/g in data set [1] (liver, read-out: Liver); 550 ng/g in data set [1] (muscle, read-out: Muscle); 5670 ng/mL in data set [1] (plasma, read-out: Plasma); 819 ng/g in data set [1] (tumor, read-out: Tumor). Moreover, the “2D6*” value at CYP450 2D6 is 3.4. The “3A4*” value on CYP450 3A4 turned out to be 16.6. Besides, the “3A4^” value on CYP450 3A4 is recorded as 15.7.
